In patent US11261186B2, “Biaryl derivative as GPR120 agonist” (LG CHEM, LTD., priority 2014, dated 2022):

Molecular target: T1, hGPR120 (Homo sapiens, UniProt Q5NUL3)
T1 construct: expressed in transfected cells; host or cells: CHO-K1
T1 sequence (Q5NUL3 1-361): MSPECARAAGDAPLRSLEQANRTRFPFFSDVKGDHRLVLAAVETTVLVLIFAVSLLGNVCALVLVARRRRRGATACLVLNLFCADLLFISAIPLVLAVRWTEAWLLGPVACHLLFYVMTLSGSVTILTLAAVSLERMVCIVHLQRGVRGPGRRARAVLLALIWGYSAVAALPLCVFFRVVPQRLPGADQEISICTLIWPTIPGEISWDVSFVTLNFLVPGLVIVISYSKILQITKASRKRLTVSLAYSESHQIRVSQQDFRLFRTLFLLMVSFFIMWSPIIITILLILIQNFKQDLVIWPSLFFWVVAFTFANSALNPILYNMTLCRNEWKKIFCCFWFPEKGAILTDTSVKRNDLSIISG
Assay: Measurement of Activity of GPR120 Agonist (Cell-Based Assay), Calcium 5 dye fluorescence
Conditions: CHO-K1 cells expressing Ga16 and hGPR120
How it was run: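 CHO-K1 cells co-expressing Gα16 and hGPR120 were seeded, cultured 18 h at 37 °C, then loaded 1 h with Calcium 5 dye. Serially diluted agonists (final 0.5% DMSO) were added and fluorescence read at Ex 485/Em 525 nm, expressed as percent relative to 1% DMSO-only wells.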

| SMILES | EC50 [nM] |
| --- | --- |
| O=C(O)CCCCc1ccc(-c2cccnc2OC2CCCC2)cc1F [Example 244, 5-[4-(2-cyclopentyloxy-pyridin-3-yl)-2-fluoro-phenyl]-pentanoic acid] | < 200 |
| CC(C)Oc1ccnc(-c2cc(F)c(N3CCC(CC(=O)O)C3)c(F)c2)n1 (stereo not shown) [Example 500, 2-{1-[2,6-difluoro-4-(4-isopropoxy-pyrimidin-2-yl)phenyl]pyrrolidin-3-yl}acetic acid] | < 200 |
| O=C(O)CCCOc1c(F)cc(-c2cccc(OCC3CC3)n2)cc1Cl [Example 401, 4-[2-chloro-4-(6-cyclopropylmethoxy-pyridin-2-yl)-6-fluoro-phenoxy]-butyric acid] | < 200 |
| CCc1ccc(Oc2ccnc(-c3cc(F)c(N4CCC(CC(=O)O)CC4)c(F)c3)n2)cc1 [Example 606, 2-[1-[2,6-difluoro-4-[6-(4-ethylphenoxy)pyrimidin-2-yl]phenyl]-4-piperidyl]acetic acid] | 200 to 2000 |
| O=C(O)CC1CCN(c2c(F)cc(-c3nccc(OC4CCC4)n3)cc2F)CC1 [Example 330, 2-[1-[4-[4-(cyclobutoxy)pyrimidin-2-yl]-2,6-difluoro-phenyl]-4-piperidyl]acetic acid] | < 200 |
| O=C(O)CCCOc1c(F)cc(-c2cccc(OC3CCC3)n2)cc1Cl [Example 385, 4-[2-chloro-4-[6-(cyclobutoxy)-2-pyridyl]-6-fluoro-phenoxy]butanoic acid] | < 200 |
| O=C(O)CCC1CCc2cc(-c3cccnc3SC3CCCC3)ccc2O1 (stereo not shown) [Example 280, 3-[6-(2-cyclopentylsulfanyl-pyridin-3-yl)-chroman-2-yl]-propionic acid] | < 200 |
| O=C(O)CCC1CCc2cc(-c3cccc(OC4CCC4)c3)ccc2O1 (stereo not shown) [Example 555, 3-[6-(3-cyclobutoxy-phenyl)-chroman-2-yl]-propionic acid] | < 200 |
| O=C(O)CCC1CC1c1c(F)cc(-c2cccc(OC3CCC3)n2)cc1F (stereo not shown) [Example 180, 3-{2-[4-(6-cyclobutoxy-pyridin-2-yl)-2,6-difluoro-phenyl]-cyclopropyl}-propanoic acid] | < 200 |
| O=C(O)CCCSc1ccc(-c2cccnc2OCC2CC2)cc1F [Example 239, 4-[4-(2-cyclopropylmethoxy-pyridin-3-yl)-2-fluoro-phenylsulfanyl]-butyric acid] | < 200 |
| O=C(O)CCCOc1c(F)cc(-c2cccc(S(=O)(=O)C3CCC3)c2)cc1F [Example 416, 4-(3′-cyclobutanesulfonyl-3,5-difluoro-biphenyl-4-yloxy)-butyric acid] | 200 to 2000 |
| CCCOc1ccnc(-c2cc(F)c(N3CCC(CC(=O)O)CC3)c(F)c2)n1 [Example 347, 2-[1-[2,6-difluoro-4-(4-propoxypyrimidin-2-yl)phenyl]-4-piperidyl]acetic acid] | < 200 |
| CC1(C)Cc2cc(Cl)cc(-c3cc(F)c(OCCCC(=O)O)c(F)c3)c2O1 [Example 253, 4-[4-(5-chloro-2,2-dimethyl-2,3-dihydro-benzofuran-7-yl)-2,6-difluoro-phenoxy]-butyric acid] | 200 to 2000 |
| O=C(O)CC1CCN(c2c(F)cc(-c3nccc(Oc4ccc(F)cc4)n3)cc2F)CC1 [Example 511, 2-[1-[4-[4-(4-fluorophenoxy)pyrimidin-2-yl]-2,6-difluoro-phenyl]-4-piperidyl]acetic acid] | < 200 |
| CC1(C)Cc2c(cccc2-c2ccc(OCCCC(=O)O)c(F)c2)O1 [Example 194, 4-[4-(2,2-dimethyl-2,3-dihydro-benzofuran-4-yl)-2-fluoro-phenoxy]-butyric acid] | < 200 |
| COc1ccc(-c2cc(F)c(N(C)CCCC(=O)O)c(F)c2)nc1OCC1CC1 [Example 461, 4-[4-[6-(cyclopropylmethoxy)-5-methoxy-2-pyridyl]-2,6-difluoro-N-methyl-anilino]butanoic acid] | 200 to 2000 |
| Cc1cc(OCC2CC2)nc(-c2cc(F)c(N3CCC(CC(=O)O)CC3)c(F)c2)n1 [Example 331, 2-[1-[4-[4-(cyclopropylmethoxy)-6-methyl-pyrimidin-2-yl]-2,6-difluoro-phenyl]-4-piperidyl]acetic acid] | 200 to 2000 |
| Oc1cc(COc2c(F)cc(-c3cccnc3OCC3CCC3)cc2F)on1 [Example 77, 5-[[4-[2-(cyclobutylmethoxy)-3-pyridyl]-2,6-difluoro-phenoxy]methyl]isoxazol-3-ol] | < 200 |
| O=C(O)CCCCc1ccc(-c2cccnc2SC2CCC2)cc1 [Example 27, 5-[4-(2-cyclobutylsulfanyl-3-pyridyl)phenyl]pentanoic acid] | < 200 |
| CN(CCCC(=O)O)c1c(F)cc(-c2nccc(OCC3CC3)n2)cc1F [Example 490, 4-[4-[4-(cyclopropylmethoxy)pyrimidin-2-yl]-2,6-difluoro-N-methyl-anilino]butanoic acid] | < 200 |

| SMILES | EC50 [nM] |
| --- | --- |
| O=C(O)CCc1ccc2cc(-c3ccccc3Oc3ccccc3F)ccc2c1 [Example 151, 3-{6-[2-(2-fluoro-phenoxy)-phenyl]-naphthalen-2-yl}-propanoic acid] | 2000 to 20000 |
| Cc1cc(OC2CCC2)nc(-c2cc(F)c(OCCCC(=O)O)c(Cl)c2)n1 [Example 391, 4-[2-chloro-4-[4-(cyclobutoxy)-6-methyl-pyrimidin-2-yl]-6-fluoro-phenoxy]butanoic acid] | < 200 |
| Cc1cc(OCC2CC2)nc(-c2cc(F)c(N3CCC(CC(=O)O)C3)c(F)c2)n1 (stereo not shown) [Example 576, {1-[4-(4-cyclopropylmethoxy-6-methyl-pyrimidin-2-yl)-2,6-difluoro-phenyl]-pyrrolidin-3-yl}-acetic acid] | < 200 |
| O=C(O)CCc1ccc2cc(-c3cccnc3Oc3ccccc3)ccc2c1 [Example 144, 3-[6-(2-phenoxy-pyridin-3-yl)-naphthalen-2-yl]-propanoic acid] | < 200 |
| CCOc1cc(C)nc(-c2cc(F)c(N3CCC(CC(=O)O)CC3)c(F)c2)n1 [Example 349, 2-[1-[4-(4-ethoxy-6-methyl-pyrimidin-2-yl)-2,6-difluoro-phenyl]-4-piperidyl]acetic acid] | < 200 |
| CC1(C)Cc2cc(Cl)cc(-c3cc(F)c(SCCCC(=O)O)c(F)c3)c2O1 [Example 254, 4-[4-(5-chloro-2,2-dimethyl-2,3-dihydro-benzofuran-7-yl)-2,6-difluoro-phenylsulfanyl]-butyric acid] | 200 to 2000 |
| O=C(O)CCCOc1ccc(-c2cccc(SC3CCC3)n2)cc1F [Example 540, 4-[4-(6-cyclobutylsulfanyl-pyridin-2-yl)-2-fluoro-phenoxy]-butyric acid] | < 200 |
| O=C(O)C1CC1CCNc1c(F)cc(-c2cccnc2SC2CCCC2)cc1F (stereo not shown) [Example 128, 2-[2-[4-(2-cyclopentylsulfanyl-3-pyridyl)-2,6-difluoro-anilino]ethyl]cyclopropanecarboxylic acid] | < 200 |
| CC(C)Oc1cccc(-c2cc(F)c(OCCCC(=O)O)c(Cl)c2)n1 [Example 402, 4-[2-chloro-6-fluoro-4-(6-isopropoxy-pyridin-2-yl)-phenoxy]-butyric acid] | < 200 |
| O=C(O)CC1CCN(c2c(F)cc(-c3cccc(CC4CCC4)n3)cc2F)CC1 [Example 375, 2-[1-[4-[6-(cyclobutylmethyl)-2-pyridyl]-2,6-difluoro-phenyl]-4-piperidyl]acetic acid] | 200 to 2000 |
| O=C(O)CCC1CCc2cc(-c3cccc4c3OC3(CCCC3)C4)ccc2S1 (stereo not shown) [Example 283, 3-(6-spiro[3H-benzofuran-2,1′-cyclopentan]-7-yl-thiochroman-2-yl)-propionic acid] | 200 to 2000 |
| O=C(O)CCCCc1ccc(-c2cccnc2OCC2CC2)cc1F [Example 247, 5-[4-(2-cyclopropylmethoxy-pyridin-3-yl)-2-fluoro-phenyl]-pentanoic acid] | < 200 |
| O=C(O)CCC1CCc2cc(-c3cccnc3SC3CCC3)ccc2O1 (stereo not shown) [Example 272, 3-[6-(2-cyclobutylsulfanyl-pyridin-3-yl)-chroman-2-yl]-propionic acid] | < 200 |
| O=C(O)CCCC(F)(F)c1ccc(-c2cccnc2OC2CCCC2)cc1 [Example 177, 5-[4-(2-cyclopentyloxy-pyridin-3-yl)-phenyl]-5,5-difluoro-pentanoic acid] | < 200 |
| COc1ccc(-c2cc(F)c(N3CCC(CC(=O)O)CC3)c(F)c2)nc1OC1CCC1 [Example 457, 2-[1-[4-[6-(cyclobutoxy)-5-methoxy-2-pyridyl]-2,6-difluoro-phenyl]-4-piperidyl]acetic acid] | 200 to 2000 |
| CCCOc1cccc(-c2cc(F)c(N(C)CCCC(=O)O)c(F)c2)c1OCCC [Example 460, 4-[4-(2,3-dipropoxyphenyl)-2,6-difluoro-N-methyl-anilino]butanoic acid] | 200 to 2000 |
| CC(C)Sc1ncccc1-c1cc(F)c(N2CCC(CC(=O)O)CC2)c(F)c1 [Example 104, 2-[1-[2,6-difluoro-4-(2-isopropylsulfanyl-3-pyridyl)phenyl]-4-piperidyl]acetic acid] | < 200 |
| O=C(O)CCCOc1c(F)cc(-c2occc2COCC2CC2)cc1F [Example 387, 4-[4-[3-(cyclopropylmethoxymethyl)-2-furyl]-2,6-difluoro-phenoxy]butanoic acid] | < 200 |
| CCCCOc1cccc(-c2cc(F)c(N3CCC(CC(=O)O)CC3)c(F)c2)n1 [Example 324, 2-[1-[4-(6-butoxy-2-pyridyl)-2,6-difluoro-phenyl]-4-piperidyl]acetic acid] | 200 to 2000 |
| O=C(O)CCCC1(c2c(F)cc(-c3cccc(OC4CCC4)n3)cc2F)CC1 [Example 168, 4-{1-[4-(6-cyclobutoxy-pyridin-2-yl)-2,6-difluoro-phenyl]-cyclopropyl}-butyric acid] | < 200 |
